Measured values published in patent US4689326A, “Process for controlling hyperlipidemia” (Research Corporation, priority 1985, dated 1987).
Like-named read-outs stand apart in the source and are kept apart here.

Experiments:
[1] = tested on: serum cholesterol; assay: Testing of Normal Mice: serum cholesterol (modified Liebermann-Burchard), Example 7; type: in vivo, CF1 male mice; conditions: Mus musculus, 20 mg/kg/day ip
Experimental: (§1) Suspensions of Compounds Nos. 1-9 were prepared wherein the compounds were suspended in an aqueous 1% carboxymethylcelluose solution, homogenized and administered to CF1 male mice, each weighing approximately 25 grams, intraperitoneally on a daily basis for 16 days. The dosage was, with the exception of one compound, 20 milligrams of the active compound per kilogram of mouse weight per day. On days 9 and 16 blood was obtained by tail vein bleeding. The blood serum was separated by centrifugation for three minutes. Serum cholesterol levels were determined by a modification of the Liebermann-Burchard reaction. Serum was also collected on day 16 and the triglycerides content was determined by a commercial kit, BioDynamics/bnc Single Vile Colorimetric Method 348201. Each compound was tested on a group of six mice.
(§2) In addition to the above-described treated mice, untreated control groups of six mice were similarly tested on days 9 and 14 or 16 to determine their serum cholesterol and triglycerides blood levels. Table 5 reports the percent control, based on the serum cholesterol and serum triglyceride levels of the treated mice compared to the untreated controls. Table 5 also includes the standard deviation indicating the level of confidence of these numbers.
(§3) Example 7 was repeated substituting clofibrate, a compound used in the prior art to lower serum cholesterol and serum triglyceride levels. The clofibrate was administered as a suspension in an aqueous 1% solution of carboxymethylcellulose. However, unlike the compounds of the present invention which were administered at a dosage of 20 mg/kg day, ip, this compound was administered at the elevated concentration of 150 mg/kg day, ip.

[2] = tested on: serum triglycerides; assay: Testing of Normal Mice: serum triglycerides (BioDynamics kit), Example 7; type: in vivo, CF1 male mice; conditions: Mus musculus, 384 h; 20 mg/kg/day ip, day 16, ± SD
Experimental: as §1, §2, §3

[3] = molecular target: T1, HMG CoA Reductase (Mus musculus, UniProt Q01237); assay: In vitro enzyme activity, liver homogenate: HMG CoA reductase; type: biochemical, CF1 male mouse; conditions: ± SD, N = 6, read-out: Percent Control, in vitro enzyme activity
T1 construct: 10% homogenates of CF1 male mouse liver; from tissue; host or cells: CF1 male mouse liver, 10% homogenate
T1 sequence (Q01237 1-887): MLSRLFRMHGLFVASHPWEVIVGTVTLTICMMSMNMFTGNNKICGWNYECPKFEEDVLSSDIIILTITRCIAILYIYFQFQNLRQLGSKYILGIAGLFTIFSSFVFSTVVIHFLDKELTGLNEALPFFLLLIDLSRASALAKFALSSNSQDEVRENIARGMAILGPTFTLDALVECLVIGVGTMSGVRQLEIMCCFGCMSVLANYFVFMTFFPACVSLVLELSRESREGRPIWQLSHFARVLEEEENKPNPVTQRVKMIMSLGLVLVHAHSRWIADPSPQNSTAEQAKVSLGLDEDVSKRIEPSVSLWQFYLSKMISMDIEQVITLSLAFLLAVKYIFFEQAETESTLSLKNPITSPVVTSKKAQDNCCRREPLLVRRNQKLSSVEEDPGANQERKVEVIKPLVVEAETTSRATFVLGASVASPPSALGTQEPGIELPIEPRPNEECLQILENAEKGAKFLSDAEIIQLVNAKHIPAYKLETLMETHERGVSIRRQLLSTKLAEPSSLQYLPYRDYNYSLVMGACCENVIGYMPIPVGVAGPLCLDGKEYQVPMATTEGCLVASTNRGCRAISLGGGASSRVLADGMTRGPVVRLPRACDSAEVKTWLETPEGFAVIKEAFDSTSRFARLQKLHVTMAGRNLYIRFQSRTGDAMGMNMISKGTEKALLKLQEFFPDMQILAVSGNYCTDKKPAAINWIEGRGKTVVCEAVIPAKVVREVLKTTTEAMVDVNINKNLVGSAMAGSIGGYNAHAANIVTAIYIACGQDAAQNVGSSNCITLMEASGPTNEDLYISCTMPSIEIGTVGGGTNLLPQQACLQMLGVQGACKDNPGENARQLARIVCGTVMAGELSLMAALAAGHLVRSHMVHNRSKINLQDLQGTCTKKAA
Experimental: (§4) In vitro enzymatic studies were undertaken using 10% homogenates of CF1 male mouse liver with […] of compound 3,4,5,6-dibenzohomopiperidine. In addition, in vivo enzymatic studies were performed, again using 10% liver homogenates (prepared in 0.25 M sucrose plus 0.001 M (ethylenedinitrilo)-tetraacetic acid, ph 7.25 from CF1 male mice obtained after administering 3,4,5,6-dibenzohomopiperidine for 16 days at a concentration ranging from 10 to 60 mg/kg/day, intraperitoneally.
(§5) The following enzyme activities were determined by following standard literature procedures: acetyl coenzyme synthetase; adenosine triphosphate dependent citrate lyase; mitochondrial citrate exchange; cholesterol/7 hydroxylase; 3-hydroxy-3-methyl-glutaryl coenzyme A reductase; acetyl coenzyme A carboxylase activity; fatty acid synthetase activity; sn-glycerol-3-phosphate acyl transferase activity; phosphatidate phosphohydrolase activity; cholesterol acyl transferase; and heparin activated hepatic lypoprotein lipase. Protein was determined for all enzyme assays by the Lowry et al. technique (J. Biol. Chem, 193, 265 (1951)).

[4] = tested on: Phosphatidate Phosphohyrolase; assay: In vitro enzyme activity, liver homogenate: phosphatidate phosphohydrolase; type: biochemical, CF1 male mouse; conditions: ± SD, N = 6
Experimental: as §4, §5

[5] = tested on: ^3 H-cholesterol; assay: Effect on 3H Cholesterol Distribution in Rats, Example 12; type: in vivo, Sprague Dawley rats; conditions: oral 20 mg/kg/day
Experimental: A group of 6 Sprague Dawley rats, each weighing approximately 300 g, were treated with 3,4,5,6-dibenzohomopiperdine applied orally at a dosage of 20 mg/kg per day for 4 days. Six similar Sprague Dawley rats were untreated and served as a control. On the 13th day, 10 μCi of ^3 H-cholesterol was administered orally. The rats were sacrificed and tissue samples were combusted or plated on filter paper, dried and digested for 24 hours in hyamine hydroxide at 40° C. and counted. Results of this test are reported as disintegrations per minute (DPM) per total organ.
In Table 10, the average organ weight and feces of the treated and untreated rats are reported. The table indicates the concentration of ^3 H-cholesterol in the organs and feces of the treated and untreated (control) rats.

c1ccc2c(c1)CNCc1ccccc1-2 [Compound 3, 3,4,5,6-dibenzohomopiperidine]
response vs control in vivo at 20 mg/kg ([1]; 216 h, day 9, ± SD, read-out: Serum Cholesterol Control, % Day 9): 68 ± 4%
response vs control in vivo at 20 mg/kg ([1]; 384 h, day 16, ± SD, read-out: Serum Cholesterol Control, % Day 16): 48 ± 4%
response vs control in vivo at 20 mg/kg [2]: 49 ± 5%
remaining activity at 50 µM ([3]; 50 μM): 95 ± 5%
remaining activity at 100 µM ([3]; 100 μM): 151 ± 9%
remaining activity at 200 µM ([3]; 200 μM): 255 ± 8%
Percent Control, in vitro enzyme activity ([4]; 50 μM): 45 ± 4%
Percent Control, in vitro enzyme activity ([4]; 100 μM): 44 ± 8%
Percent Control, in vitro enzyme activity ([4]; 200 μM): 50 ± 6%
3H-cholesterol, Treated % Recovery ([5]; brain): 0.162%
3H-cholesterol, Treated DPM per total organ ([5]; brain): 9,216 DPM
3H-cholesterol, Treated % Recovery ([5]; chyme): 11.739%
3H-cholesterol, Treated DPM ([5]; chyme): 667,840 DPM
3H-cholesterol, Treated % Recovery ([5]; feces): 14.462%
3H-cholesterol, Treated DPM ([5]; feces): 822,719 DPM
3H-cholesterol, Treated % Recovery ([5]; heart): 0.452%
3H-cholesterol, Treated DPM per total organ ([5]; heart): 25,692 DPM
3H-cholesterol, Treated % Recovery ([5]; kidney): 0.652%
3H-cholesterol, Treated DPM per total organ ([5]; kidney): 37,096 DPM
3H-cholesterol, Treated % Recovery ([5]; large intestine): 3.757%
3H-cholesterol, Treated DPM per total organ ([5]; large intestine): 213,777 DPM
3H-cholesterol, Treated % Recovery ([5]; liver): 23.615%
3H-cholesterol, Treated DPM per total organ ([5]; liver): 1,343,450 DPM
3H-cholesterol, Treated % Recovery ([5]; lung): 2.183%
3H-cholesterol, Treated DPM per total organ ([5]; lung): 124,180 DPM
3H-cholesterol, Treated DPM ([5]; plasma): 26,018 DPM
3H-cholesterol, Treated % Recovery ([5]; small intestine): 38.525%
3H-cholesterol, Treated DPM per total organ ([5]; small intestine): 2,191,623 DPM
3H-cholesterol, Treated % Recovery ([5]; spleen): 1.806%
3H-cholesterol, Treated DPM per total organ ([5]; spleen): 102,723 DPM
3H-cholesterol, Treated % Recovery ([5]; stomach): 2.189%
3H-cholesterol, Treated DPM per total organ ([5]; stomach): 124,552 DPM
